For 20 compounds, IC50 results are on record in ChEMBL document CHEMBL1136248, “Further SAR studies on novel small molecule inhibitors of the hepatitis C (HCV) NS5B polymerase” (Bioorg Med Chem Lett, 2003).

Where only a bound is given, the exact number is not on record here.

In this test the target is Genome polyprotein (Hepatitis C virus genotype 1a (isolate 1) (HCV), UniProt P26664). Description: Inhibition of Hepatitis C RNA dependent RNA polymerase Nonstructural protein 5B activity.
Genome polyprotein, sequence (P26664 2421-3011 limits assumed): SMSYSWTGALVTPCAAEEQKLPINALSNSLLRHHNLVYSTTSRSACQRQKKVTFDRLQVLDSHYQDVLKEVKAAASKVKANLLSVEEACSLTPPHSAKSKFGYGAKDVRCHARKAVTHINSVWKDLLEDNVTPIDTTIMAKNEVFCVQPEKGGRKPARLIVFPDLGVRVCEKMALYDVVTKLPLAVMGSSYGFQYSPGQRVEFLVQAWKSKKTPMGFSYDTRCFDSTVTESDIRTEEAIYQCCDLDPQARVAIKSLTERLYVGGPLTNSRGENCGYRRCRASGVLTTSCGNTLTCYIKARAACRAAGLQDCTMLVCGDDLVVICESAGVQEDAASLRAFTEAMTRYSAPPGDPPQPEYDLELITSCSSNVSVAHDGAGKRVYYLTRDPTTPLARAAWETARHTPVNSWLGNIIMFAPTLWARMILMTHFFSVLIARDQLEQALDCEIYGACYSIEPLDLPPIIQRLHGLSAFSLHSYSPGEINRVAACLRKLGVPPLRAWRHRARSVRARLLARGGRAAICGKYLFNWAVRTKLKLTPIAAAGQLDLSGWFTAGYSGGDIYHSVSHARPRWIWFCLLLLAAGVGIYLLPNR
On to `O=C(O)[C@H](Cc1ccccc1)N(Cc1cccc(Br)c1)Cc1ccc(Cl)cc1Cl`, for which the IC50 turned out to be 26 µM.

In turn, `O=C(O)[C@H](Cc1ccccc1)N(Cc1cccc(Br)c1)C(=O)Nc1ccc(Cl)cc1Cl` returned an IC50 of 31 µM.

As to `Cc1cc(Cl)ccc1C(=O)N(Cc1cccc(Br)c1)[C@@H](Cc1ccccc1)C(=O)O`, the IC50 stood at 3.7 µM.

For `O=C(O)[C@H](Cc1ccccc1)N(Cc1cccc(Br)c1)C(=O)c1cccc(Cl)c1`, the midpoint of inhibition, the IC50, lay at 30 µM.

`O=C(O)[C@H](Cc1ccccc1)N(Cc1cccc(Br)c1)S(=O)(=O)c1ccc(Cl)cc1Cl`: the IC50 stood at 31 µM.

In the case of `O=C(O)[C@H](Cc1ccccc1)N(Cc1cccc(Br)c1)c1ccc(Cl)cc1Cl`, inhibition was half-maximal at 15 µM (IC50). Compared with the last compound, the IC50 is about 2.1-fold lower.

Consider `O=C(O)[C@H](Cc1ccccc1)N(Cc1cccc(Br)c1)C(=O)c1ccc(Cl)nc1Cl`, for which the IC50 was found to be 31 µM.

In turn, `O=C(O)[C@H](Cc1ccccc1)N(Cc1cccc(Br)c1)C(=O)c1ccc(Cl)cc1I` had an IC50 of 2.7 µM.

In turn, `COc1ccc(C(=O)N(Cc2cccc(Br)c2)[C@@H](Cc2ccccc2)C(=O)O)c(OC)c1` showed an IC50 of 10.7 µM.

For the compound `O=C(O)[C@H](Cc1ccccc1)N(Cc1cccc(Br)c1)C(=O)c1c(Cl)cc(Cl)cc1Cl`, the IC50 was determined as 13 µM.

Regarding `O=C(O)[C@H](Cc1ccccc1)N(Cc1cccc(Br)c1)C(=O)c1ccc(Cl)cc1Br`, the IC50 was 5 µM.

Consider `O=C(O)[C@H](Cc1ccccc1)N(Cc1cccc(Br)c1)C(=O)c1ccc(Cl)cc1Cl`, for which it took 3.5 µM to reach half-maximal inhibition (IC50).

Compound `O=C(O)[C@H](Cc1ccccc1)N(Cc1cccc(Br)c1)C(=O)c1ccc(Cl)cc1` came in with an IC50 of 10.6 µM.

Turning to `O=C(O)[C@H](Cc1ccccc1)N(Cc1cccc(Br)c1)C(=O)c1ccccc1Cl`, 31 µM corresponded to half-maximal inhibition (IC50).

In turn, `O=C(O)[C@H](Cc1ccccc1)N(Cc1cccc(Br)c1)C(=O)c1ccccc1` came in with an IC50 greater than 50 µM.

Turning to `O=C(O)[C@H](Cc1ccccc1)N(Cc1cccc(Br)c1)C(=O)c1ccc(F)cc1F`, the IC50 was 43 µM.

For the compound `Cc1ccc(C(=O)N(Cc2cccc(Br)c2)[C@@H](Cc2ccccc2)C(=O)O)c(C)c1`, half-maximal inhibition (IC50) was put at 5.9 µM.

`CCc1cc(Cl)ccc1C(=O)N(Cc1cccc(Br)c1)[C@@H](Cc1ccccc1)C(=O)O` had an IC50 of 5.6 µM.

Compound `O=C(O)[C@H](Cc1ccccc1)N(Cc1cccc(Br)c1)C(=O)c1ccc(Cl)c(Cl)c1` came in with an IC50 of 30 µM.

In turn, `COc1cc(Cl)ccc1C(=O)N(Cc1cccc(Br)c1)[C@@H](Cc1ccccc1)C(=O)O` yielded an IC50 of 11 µM.

As usually defined, the IC50 is the concentration that inhibits the measured activity by half. Higher therefore signals lower potency.
